Each structure is given as a SMILES string.

1 molecule from patent US6433012B1, “Method for inhibiting inflammatory disease” (Large Scale Biology Corp., priority 1998, dated 2002) can be followed below.

One data set deals with MCF-7 cell cultures. Kind of data set: Cytotoxicity in vitro (reduction of cell number). The format is cell-based. To be noted: Homo sapiens, MCF7; treated for 48 h; read-out: IC50 (50% reduction of cell number relative to vehicle-treated control).
Data set [1] has as its system corneal neovascularization induced by bFGF. Kind of data set: Rat corneal neovascularization assay. The format is in vivo, Fischer 344 rats. On the set-up: total vascular area: unit not given here. To be noted: oral gavage 500 mg/kg twice a day for 6 days. The protocol: Hydron polymer (Interferon Sciences, New Brunswick, N.J.) was dissolved in ethanol to a concentration of 12% (W/V). A 1:1 mixture of 12% Hydron and bFGF/Sucralfate/PBS suspension was made as a casting solution and 3 μl of this solution was pipetted onto a sterile Teflon sheet and allowed to dry overnight at 4° C. Each dried pellet contained 50 ng of bFGF and 20 μg of Sucralfate. Female Fischer 344 rats (16 animals, 8-10 weeks old at an approximate weight of 150 g; Charles River, Raleigh, N.C.) were used for this study. Animals were kept in temperature-controlled rooms (24° C.) on a 12-h light-dark cycle with access to rat chow and tap water ad libitum. Following anesthesia with sodium pentobarbital given i.p. at 50 mg/kg body weight, a rat was placed under a dissecting microscope and a drop of Ophthaine was applied on the cornea of one eye. The eye was proptosed by stretching sutures on the upper and lower eyelids. A small superficial incision was made through the cornea center and a micropocket was created by separating the lamella of the stroma toward the limbus with a modified iris spatula. The distance between the bottom of the micropocket and the limbus was about 1 mm. A prepared sterile Hydron pellet was rehydrated with a drop of sterile saline and placed into the corneal micropocket. The cornea was covered with gentamycin ophthalmic ointment (Alleran, Inc., Irvine, Calif.) after surgery. Rats were randomly divided into treated and control groups. […] The drug was administrated by oral gavage at a dose of 500 mg/kg body weight, twice a day for 6 days beginning from the first postoperative day. The controls received vehicle only, and body weights of all animals were monitored and recorded daily. On the seventh postoperative day, animals were anesthetized with nembutal (50 mg/kg) and the thoracic aorta was rapidly cannulated in a retrograde fashion with PE 100 tubing. An incision was made in the right auricle for drainage of blood and saline during flushing and 40-60 mL of saline was injected via the tubing to wash out the blood from the vessels in the upper part of the body until the eyes, ears and nose became pale. Then 10 mL of Higgins waterproof Indian ink (Sanford, Bellwood, Ill.) was injected via the tubing to visualize corneal vessels. The eyes were enucleated, fixed in 10% neutralized formaldehyde buffer, and the corneas were dissected and mounted on slides. Slide-mounted corneal images were taken by using a Carl Zeiss MPS intravital microscope (Carl Zeiss, Hanover, Md.) with a camera connected to a PC equipped with Scion Image software and a frame grabber (Scion Corporation, Frederick, Md.).
For the quantitative analysis of corneal neovascularization, various parameters of the corneal images were measured by an investigator who was unaware of the treatment protocol. The shortest distance between the implanted pellet and the limbus was marked as the midline and was measured. The arc along the limbus for the entire vascularized area was drawn and the length of the arc was measured. The circumference of this area was calculated by using the following equation: Circumference (in clock hours)=Arc length×360/πD/30, where D is the corneal diameter. The marked arc was evenly divided into six sections, distances between vessel tips and the limbus at the five intersection points of the arc were measured, and the average vessel length was calculated. The perpendicular distance between the tip of the longest vessel and the limbus (longest vessel length) was also measured. To measure the percent vascular volume (i.e., the vascular volume density), three circles with a diameter of 100 pixels were located between the pellet and the limbus on the midline in the second and the fifth sections, respectively. The total area of each circle (Area-T) and the area for vessels in each circle (total black pixels) were measured (Area-V). […]

Data set [2] has as its system MCF-7 cells. Kind of data set: Flow cytometry, cell-cycle progression. The data set is classed as cell-based, human. To be noted: 1 μM, within 24 h. The text has this: Such arrested cells eventually undergo cell death which can occur by an apoptotic mechanism.
In general terms: Flow cytometry measures light scatter and fluorescence of single cells or particles in a stream.

Data set [3] concerns rhodamine-labeled tubulin. Put plainly: Cell-free fluorescence assay of microtubule assembly. The data set is classed as biochemical. To be noted: 15 μM tubulin, GTP. The text has this: Microtubules are major cytoskeletal components composed of α- and β-tubulin heterodimers bound with GTP. […] The effect of the drug on microtubule assembly was investigated directly by using a cell-free fluorescence assay involving the visualization of microtubule formation from rhodamine-labeled tubulin and microtubule seeds in the presence of GTP.

Data set [4] in a line: Bone marrow toxicity, histological examination. To be noted: 500 mg/kg-day by gavage for 4 weeks. The data set is classed as in vivo. How it is done: Swiss Webster mice were exposed to the drug at 500 mg/kg-day by gavage for a period of 4 weeks, and bone marrow was examined histologically.
For data set [5], the system named is MCF-7 cells. Put plainly: Trypan blue exclusion assay (loss of membrane integrity). The data set is classed as cell-based. To be noted: 1 μM, 48 h of exposure.

On to `COC(=O)c1cc(I)c(Oc2ccc(OC)cc2)c(I)c1` [BTO-956, methyl-3,5-diiodo-4-(4′-methoxyphenoxy)benzoate], for which the concentration for half-maximal inhibition (IC50) in the data set with MCF-7 cell cultures was determined as 600 nM. Further, the “body weight loss or behavioral changes” value in data set [1] is given as “No significant body weight loss or behavioral changes”. Further, in data set [1] (mean ± SEM), the average vessel length is recorded as 0.42±0.07 mm, the “circumference of corneal neovascularization” value is 1.74±0.11 clock hours, the maximum vessel length came out at 0.76±0.09 mm and the total vascular area was 1.52±0.27. The molecule also gave a vascular volume density in data set [1] (mean ± SEM) of 0.037±0.01. In addition, in data set [1] (p<0.001), the “reduction of average vessel length relative to controls” value is recorded as 50%. Also, in data set [1] (p<0.01), the “decrease of total vascular area compared with controls” value is listed as 65%, the “decrease of vascular volume density compared with controls” value is 84.5%, the “reduction of circumference of neovascularization compared with controls” value worked out at 45% and the “reduction of maximum vessel length relative to controls” value came to 38%. In addition, in the data set with MCF-7 cells [2], the “cells arrested at G2/M” value is on record as “at least 60%”. In data set [3] (compound 1 μM), the microtubule formation entry is reported as “much shorter structures”. Moreover, the microtubule formation entry in data set [3] (compound 10 μM) is recorded as “The same effect was observed”. Moreover, in data set [4], the bone marrow profiles entry is listed as “did not differ from those of control animals” and the hematopoietic abnormalities entry is reported as “no hematopoietic abnormalities”. Further, the “cytotoxicity by loss of membrane integrity (trypan blue exclusion)” value in the data set on MCF-7 cells [5] was “substantial cytotoxicity”.

A word on the IC50: it is the concentration needed to halve the response being measured.
